Measurements from patent EP4623908A1, “USE OF (-)-EPIGALLOCATECHIN GALLATE COMPOUND” (CF Pharmtech, Inc., priority 2022, dated 2024).

Columns and labels:
[1] = cited from earlier work
[2] = cited from earlier work; remark: listed apart in the source
[3] = animal experiments; inhalation; cited from earlier work
[4] = system: Pulmonary Fibrosis Induced by Bleomycin in Rats; assay: Bleomycin-induced pulmonary fibrosis model in rats (Example 5); type: in vivo, SD rats
Method: This study aims to compare the effects of different administration methods, including oral gavage of EGCG, tracheal nebulization of pirfenidone solution, and tracheal nebulization of EGCG at different doses, on the collagen content in lung tissues and pathological observations of rats with bleomycin-induced pulmonary fibrosis. The therapeutic effect of inhaled EGCG on rat pulmonary fibrosis was evaluated.
The solvents for the EGCG nebulization solution, modeling agents, and their solvents are as described in Example 4. The positive control drug is pirfenidone (purity 99%, pharmaceutical grade), with the solvent components consisting of NaCl and citric acid, forming a clear liquid.
SPF-grade SD rats, 6-9 weeks old with a weight of 200-300g, totaling 88 rats, were randomly divided into the following groups: • Sham operation group (normal control) (8 rats) • Pulmonary fibrosis model control group (10 rats) • Oral gavage EGCG group 1 (10 rats) • Oral gavage EGCG group 2 (10 rats) • Tracheal Nebulization EGCG solution groups 1-4 (10 rats per group, total 40 rats) • Tracheal Nebulization pirfenidone solution group (10 rats)
On D1, the normal control group was administered solvent 2 (saline injection solution, 1 mL/kg) via tracheal nebulization, while all other groups were administered bleomycin (2.5 mg/kg, 1 mL/kg) via tracheal nebulization twice a day (morning and afternoon) to establish the model. On D8, the body weights of the animals were recorded. From D10 to D28, the normal control and pulmonary fibrosis model groups were treated with solvent 1 via tracheal nebulization, while the remaining groups were administered EGCG or pirfenidone once daily at the following doses and administration methods: • Oral gavage EGCG group 1 and 2: 30 mg/kg, 60 mg/kg • Tracheal Nebulization EGCG group 1-4: 0.05 mg/kg, 0.4 mg/kg, 0.8 mg/kg, 1.6 mg/kg • Tracheal Nebulization pirfenidone solution group: 0.9 mg/kg (reference dose from M.W. Surber et al., ATS POSTER, 2014)
On D29, all animals were euthanized for dissection. During the necropsy, the lungs, trachea, and bronchi were examined for abnormalities. Left lung tissue was preserved at below -60°C for hydroxyproline content detection, and right lung tissue was prepared for pathological sectioning. Hematoxylin and eosin (HE) staining and Masson staining were performed for pathological morphological observations and fibrosis evaluation.
All groups were compared to the model group using statistical analysis via Kruskal-Wallis test. The results are indicated as follows: • *P < 0.05: statistically significant difference • **P < 0.01: highly significant difference • ***P < 0.001: extremely significant difference • ****P < 0.0001: extremely highly significant difference

[5] = nebulized 100 mg vs oral 801 mg

Row | SMILES | diarrhea in clinical study participants ([1]; oral 150 mg twice daily (BID)) | plasma drug concentrations ([2]; inhalation) [ng/mL] | Cmax in epithelial lining fluid (ELF) relative to the Cmax of the oral dose (higher) [2, 5] [times] | systemic exposure relative to the oral dose (lower) [2, 5] | half-life in the lungs [3] | Hydroxyproline Content ([4]; rat lung tissue, positive control, Inh 0.9 mg/kg once daily D10 to D28, Mean ±SEM) [µg/µL] | hydroxyproline content in rat lungs, difference from the model group ([4]; tracheal nebulization of pirfenidone solution 0.9 mg/kg) | photosensitivity reactions in patients ([1]; oral 801 mg three times daily (TID))
1 | COC(=O)c1ccc2c(c1)NC(=O)/C2=C(\Nc1ccc(N(C)C(=O)CN2CCN(C)CC2)cc1)c1ccccc1 [nintedanib] | up to 61.5% |  |  |  |  |  |  | 
2 | Cc1ccc(=O)n(-c2ccccc2)c1 [pirfenidone] |  | 807 to 1370 | 35 | about 15 times | about 10 minutes | 0.587 ± 0.059 | not statistically significant | up to 51%
